According to ChEMBL document CHEMBL3351790, “Inhibitory effects of p-alkylaminophenol on melanogenesis” (Bioorg Med Chem, 2014):
The source made the active and inactive calls. The calls are words filed in the database; no cut-off is given here.

Tests used:
Liver microsome = experiment: Inhibition of lipid peroxidation in rat liver microsomes; type: functional
B16 [1] = experiment: Inhibition of alpha-MSH-induced AKT phosphorylation in mouse B16 cells at 0.1 to 1 uM after 3 days by Western blotting relative to control; type: cell-based
B16 [2] = experiment: Inhibition of alpha-MSH-induced ERK phosphorylation in mouse B16 cells at 0.4 uM after 3 days by Western blotting relative to control; type: cell-based
B16 [3] = experiment: Inhibition of alpha-MSH-induced ERK phosphorylation in mouse B16 cells at 0.1 uM after 3 days by Western blotting relative to control; type: cell-based
B16 [4] = experiment: Inhibition of alpha-MSH-induced tyrosinase mRNA expression in mouse B16 cells at 0.1 to 1 uM after 3 days by RT-PCR analysis relative to control; type: functional, cell-based
B16 [5] = experiment: Inhibition of alpha-MSH-induced TRP-1 mRNA expression in mouse B16 cells at 1 uM after 3 days by RT-PCR analysis relative to control; type: functional; details: B16, 72 h
B16 [6] = experiment: Inhibition of alpha-MSH-induced TRP-2 protein expression in mouse B16 cells at 0.1 to 1 uM after 3 days by Western blotting relative to control; type: functional, cell-based
B16 [7] = experiment: Inhibition of alpha-MSH-induced TRP-2 mRNA expression in mouse B16 cells at 0.1 to 1 uM after 3 days by RT-PCR analysis relative to control; type: functional, cell-based
B16 [8] = experiment: Cytotoxicity against mouse B16 cells at 1 uM after 72 hrs by MTT assay; type: cell-based; details: b16, 72 h
[9] = target: T1, Tyrosinase (Mus musculus) (UniProt P11344); experiment: Inhibition of tyrosinase in mouse B16 cells using L-tyrosine as substrate preincubated at 50 uM for 20 mins by spectrophotometry relative to control; type: cell-based
T1 sequence (whole entry): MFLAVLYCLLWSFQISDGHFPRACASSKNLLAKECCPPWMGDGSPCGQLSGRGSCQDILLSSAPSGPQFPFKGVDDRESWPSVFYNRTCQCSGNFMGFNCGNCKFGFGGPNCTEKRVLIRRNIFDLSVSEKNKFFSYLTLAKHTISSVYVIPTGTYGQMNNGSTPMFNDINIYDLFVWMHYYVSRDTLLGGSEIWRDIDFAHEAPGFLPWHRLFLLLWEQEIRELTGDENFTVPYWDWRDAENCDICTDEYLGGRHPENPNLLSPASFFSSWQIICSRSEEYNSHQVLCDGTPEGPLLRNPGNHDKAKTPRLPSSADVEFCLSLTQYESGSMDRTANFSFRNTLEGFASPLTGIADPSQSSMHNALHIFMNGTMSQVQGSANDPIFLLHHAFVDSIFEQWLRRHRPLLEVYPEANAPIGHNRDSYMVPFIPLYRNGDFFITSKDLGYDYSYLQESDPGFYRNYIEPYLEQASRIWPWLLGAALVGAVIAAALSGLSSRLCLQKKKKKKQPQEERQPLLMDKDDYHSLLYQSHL

B16 [10] = experiment: Inhibition of alpha-MSH-induced MITF mRNA expression in mouse B16 cells at 1 uM after 3 days by RT-PCR analysis relative to control; type: functional; details: B16, 72 h
B16 [11] = experiment: Inhibition of alpha-MSH-induced tyrosinase protein expression in mouse B16 cells at 0.1 to 1 uM after 3 days by Western blotting relative to control; type: functional, cell-based
B16 [12] = experiment: Inhibition of alpha-MSH-induced MITF protein expression in mouse B16 cells after 3 days by Western blotting relative to control; type: functional, cell-based
B16 [13] = experiment: Inhibition of alpha-MSH-induced melanin production in mouse B16 cells at 1 uM after 3 days by spectrophotometry relative to control; type: functional; details: B16, 72 h
B16 [14] = experiment: Inhibition of alpha-MSH-induced ERK phosphorylation in mouse B16 cells at 1 uM after 3 days by Western blotting relative to control; type: cell-based
B16 [15] = experiment: Inhibition of alpha-MSH-induced melanin production in mouse B16 cells at 0.1 to 0.4 uM after 3 days by spectrophotometry relative to control; type: functional, cell-based
B16 [16] = experiment: Inhibition of alpha-MSH-induced TRP-1 protein expression in mouse B16 cells after 3 days by Western blotting relative to control; type: functional, cell-based

CCCCCCCCNc1ccc(O)cc1
IC50 (Liver microsome): 14 nM

CC1=C(/C=C/C(C)=C/C=C/C(C)=C/C(=O)O)C(C)(C)CCC1 [TRETINOIN]
IC50 (Liver microsome): 3200 nM

CC1=C(/C=C/C(C)=C/C=C/C(C)=C/C(=O)Nc2ccc(O)cc2)C(C)(C)CCC1 [FENRETINIDE]
IC50 (Liver microsome): 5000 nM

CCCCCCCCCCNc1ccc(O)cc1
inhibition (B16 [1]): inactive | inhibition (B16 [2]): 75% | IC50 (Liver microsome): 15 nM | inhibition (B16 [3]): 22% | inhibition (B16 [4]): inactive | inhibition at 1 µM (B16 [5]): 50% | inhibition (B16 [6]): inactive | inhibition (B16 [7]): inactive | Activity (B16 [8]): Non-toxic | inhibition [9]: 7% | inhibition at 1 µM (B16 [10]): 68% | inhibition (B16 [11]): inactive | inhibition (B16 [12]): Dose-dependent effect | inhibition at 1 µM (B16 [13]): 34% | inhibition (B16 [14]): 88% | inhibition (B16 [15]): inactive | inhibition (B16 [16]): Dose-dependent effect

CCCCCCCCCCCCNc1ccc(O)cc1
IC50 (Liver microsome): 15.5 nM

CCCCCCNc1ccc(O)cc1
IC50 (Liver microsome): 33 nM
